In patent US12252472B1, “Barbituric acid derivatives, their preparation and use thereof as leukocyte transmigration inhibitors and for treating inflammatory diseases, autoimmune diseases and cancer” (BAR-ILAN UNIVERSITY, priority 2017, dated 2025):

Tests used:
[1] = tested on: C57BL/6J mice; test: Acute toxicology in naive mice (blood counts, biochemical tests, histology); type: in vivo, mouse
Description: 1% methyl cellulose in DDW solution was prepared by adding 0.5 g methyl cellulose into 50 ml of DDW and stirring the solution at the lowest possible speed (without making bubbles) overnight at room temperature. Formula 2 stock solution was prepared in concertation of 20 mg/ml at room temperature following shown below order of actions: • 1. 30 mg of the compound of Formula 2 was placed in the glass vial together with small magnet. • 2. 1.5 ml of 1% methylcellulose was added by circular (swirled) movement very slow. The entire surface of the vial was gently covered by the solvent and powder was not allowed to float above the liquid. • 3. The resulting suspension was stirred at the lowest possible speed up to 48 hours at room temperature. • 4. Intermediate Formula 2 stock solution at 10 mg/ml concentration was prepared by diluting 20 mg/ml stock solution 1:1 (v/v) with equal amount of DDW. DDW was added to the Formula 2 stock solution. The obtained suspension was stirred at the lowest possible speed for another hour at room temperature. • 5. Formula 2 working solution at 3 mg/ml was prepared by diluting intermediate stock solution (v/v) with DDW accordingly. The working suspension of Formula 2 was stirred at the low speed (˜80-100 rpm) for 30 minutes to 1 hour prior to use in animal experiments.
Eight experimental groups with 5 female 6-7 weeks old C57BL/6J mice each and one control group non treated (naïve) mice were used for the experiment. Mice were administered with daily application of the working suspension of the compound of Formula 2, prepared as described hereinabove, at 5, 10 and 15 mg/kg by intraperitoneal injection (IP) or at 10, 20 and 30 mg/kg by oral gavage (PO). […] Mice from all groups were euthanized with isoflurane 24 hours post last dose administration. Sampling for whole blood counts (WBC) and white blood differentiation: 200 μl of whole blood were collected into EDTA tubes (Greiner MiniCollect K3EDTA tubes). For comprehensive metabolic panel the rest of the whole blood (300-400 μl) was collected for the serum preparation. All blood tests were conducted in American Medical Labs, Herzeliah, Israel. Liver, spleen, lungs, heart and kidneys were collected from each mouse placed to vials with 4% buffered formalin following paraffin embedding and sectioning. Sections from each organ of each animal were stained with H&E and histological evaluation of the tissue was performed.

[2] = tested on: primary human monocytes on TNF-alpha-activated HUVECs; test: Shear flow assay: monocyte adhesion and transmigration on TNFα-activated HUVECs; type: cell-based
Excerpt: A flow assay that allows detailed analysis of individual leukocyte interactions with endothelial cells (ECs), described in Bradfield et al. (Bradfield et al., 2016, PloS One, July 21; 11(7); Bradfield et al., 2007, Blood. October 1; 110(7):2545-55) was used for evaluation of the biological effects of the compounds according to the invention. This method allows the determination of the possible effects of the compounds on three major phases in leukocyte migration: the capture of free non-bound leukocytes by endothelium, migration of leukocytes on the endothelium surface, and transendothelial migration (transmigration) of human leukocytes through the HUVECs layer. Post transmigrational events can also be monitored by tracking individual leukocytes. […] Human umbilical vein endothelial cells (HUVECs) were cultivated in the plastic channel of the flow chamber, and human leukocyte were flowed over them using a calibrated pump, allowing monocyte capture, adhesion and migration to be monitored.
Human umbilical vein endothelial cells (HUVEC) were isolated by collagenase treatment of umbilical veins as previously described (Wall, R. T., et al., Factors influencing endothelial cell proliferation in vitro. J Cell Physiol, 1978. 96(2): p. 203-13) and maintained in M199 containing 20% fetal calf serum (FCS), 15 μg/mL endothelial cell growth supplement (Upstate Biotechnology, Lake Placid, NY), 100 μg/mL heparin, 50 μM hydrocortisone, and 10 μg/mL vitamin C. Cells were cultured up to a maximum of passage 5.
Peripheral blood mononuclear cells (PBMCs) were first isolated from blood of healthy donors followed by monocyte purification using a monocyte isolation kit (Miltenyi Biotec, Bergisch Gladbach, Germany). Purity and activity of monocytes were controlled by flow cytometry by labelling with anti-CD14 and anti-CD62L. Only populations of 90% or more double positive cells were used.
Flow assays were conducted as described in a previous study (Bradfield, P. F., et al., JAM-C regulates unidirectional monocyte transendothelial migration in inflammation. Blood, 2007. 110(7): p. 2545-55). HUVECs were cultured at 1×10^5 cells/slide on Ibidi 6-chamber slides (80606; Ibidi) before treatment with TNFα (500 U/mL) for 6-10 hours. An individual chamber outlet was then attached to a calibrated pump (74 900; Cole Partner, Vernon Hills, IL) and flow was generated by perfusing wash buffer (M199 with 0.15% BSA) or a monocyte suspension (2.5×10^6 cells/mL) over the HUVEC monolayer. The flow rate was representative of shear rates in small venules (0.05 Pa). Observations made using phase-contrast microscopy (Model: Axiovert 100; Objective: 20×/0.3 NA air; Carl Zeiss) were recorded using a high-resolution camera (D70; Nikon, Zurich, Switzerland). Individual images were recorded every 30 seconds with Nikon capture software (v4.2) and compiled into movie sequences using Adobe Photoshop (CS6) and Image J (v1.5d), allowing analysis of individual monocytes over large areas. The tested compounds, e.g. compounds of the general Formula (I), were maintained at the specified concentration in all wash buffers throughout the course of the experiment. The compounds were preincubated separately on both HUVECs and monocytes 15 minutes prior to flow co-culture. HUVEC monolayers were washed for 10 minutes prior to a compound wash-in step to allow for this preincubation period. The monocyte suspension was then perfused over HUVECs for 4 minutes followed by 20 to 60 minutes with wash buffer. Time-lapse recording was started upon monocyte first-contact with the monolayer. Monocyte adhesion data are presented as the total number of monocytes per unit field. Transmigration events are presented as a percentage of total monocytes captured from flow per unit field. All experiments were carried out using quadruplicate fields and are presented as a mean value (±SEM).
A timeline is shown to represent the positioning and timing of an individual monocyte during movie analysis (marked ‘Timeline’). […]

[3] = 5, 10, 15 mg/kg IP or 10, 20, 30 mg/kg PO, daily

COC(=O)c1ccc(COc2c(C=C3C(=O)NC(=O)NC3=O)cccc2C(C)(C)C)cc1 [Formula 2, methyl 4-((2-(tert-butyl)-6-((2,4,6-trioxotetrahydropyrimidin-5(2H)-ylidene)methyl)phenoxy)methyl) benzoate]
microstructure of lungs, heart, liver, spleen and kidney tissues ([1]; 3 doses IP): no effect | microstructure of lungs, heart, liver, spleen and kidney tissues ([1]; 3 doses PO): no effect | blood levels of calcium, phosphorus, sodium, potassium, chloride and hemolytic index ([1]; 3 doses PO or 3 doses IP, n=5): no effect | blood levels of creatinine, urea, total protein, albumin, globulin, glucose ([1]; 3 doses PO or 3 doses IP, n=5): no effect | blood levels of total billirubin, alkaline phosphatase, SGOT, SGPT and cholesterol ([1]; 3 doses PO or 3 doses IP, n=5): no effect | different subtypes of red blood cells, platelets and hematocrit ([1]; 3 doses PO or 3 doses IP, n=5): no effect | different subtypes of white blood cells ([1]; 3 doses PO or 3 doses IP, n=5): no effect | tested metabolic values [1, 3]: in normal range | whole blood counts and white cells differentiation [1, 3]: no significant changes | tissues morphology, microscopic evaluation ([1]; liver, spleen, lungs, heart, kidneys, IP and PO): no changes | monocyte transmigration ([2]; 30 μM): completely blocked | Monocyte adhesion ([2]; 30 μM, flow 0.05 Pa for 30 minutes): unaffected | Level of Transmigration Blockage (%) ([2]; 30 μM, monocytes on TNF-activated HUVECs under flow 0.05 Pa): 100% | IC50 ([2]; Homo sapiens, HUVEC, flow 0.05 Pa, n=3): 2400 nM | Emax ([2]; Homo sapiens, HUVEC, monocyte transmigration inhibition, read-out: maximal efficacy): 48% | concentration below which not active on monocyte transmigration ([2]; dose response, 100 μM to 3 nM): below 300 nM | monocyte transmigration ([2]; dose response, 3 μM): partial blocking | monocyte transmigration ([2]; dose response, 30-100 μM): full blocking | time of the maximal effect ([2]; monocyte transmigration, read at 10, 15, 20 and 25 minutes): 20 min
